Source: US8114406B2, “Peptides and their utility in modulation of behavior of cells expressing α3β1 integrins” (The United States of America as represented by the …, priority 1999, dated 2012)
Like-named read-outs stand apart in the source and are kept apart here. Where no end group is shown, it is not given here.

Experiments:
[1] = test system: chick chorioallantoic membrane (CAM) angiogenesis; test: Chick chorioallantoic membrane (CAM) angiogenesis assay; type: in vivo, chicken; conditions: for Angiogenic response (% inhibition): relative to control gels, mean ± SD; for activity in the CAM assay: in vivo
Protocol: Fertilized Leghorn chicken eggs were obtained from Ramona Duck farm (Westminster, Calif.). At day 3 of development, the embryos were placed on 100 mm petri dishes. Assays were performed as previously described (Iruela-Arispe et al., 1999). […] Peptides were filtered on Centricon P100 prior to their analysis on the CAM assays to eliminate traces of endotoxin. Pellets were applied to the outer ⅓ of the CAM, and the assay was performed for 24 h. Detection of capillary growth was done by injection of FITC-dextran in the bloodstream and observation of the pellets under a fluorescent inverted microscope. Positive controls (growth factors and vehicle), as well as negative controls (vehicle alone) were placed in the same CAM and used as reference of 100% stimulation or baseline inhibition (0%), and response to the peptides was determined according to these internal controls. Assays were performed in duplicate in each CAM and in four independent CAMs (total of 8 pellets).

OH1 SCLC cells = type: cell-based, human; conditions: soluble
Protocol: Net, proliferation was determined by the CellTiter assay (Promega) and is presented as mean±SD, n=3. […] The cells were fixed and photographed using Nomarski optics. Bar=100 μm. […] Panel E: α3β1 Integrin ligands cooperate with EGF to inhibit OH1 cell proliferation. […] Net proliferation is presented as a percent of the -EGF control (mean±SD, n=3 for treated groups and n=6 for control groups).
Proteins and peptides were immobilized on Nunc Maxisorp 96 well plates by overnight incubation with the proteins or peptides dissolved in 50 μl of sterile Dulbecco's PBS. The supernatant fluid was removed, and the wells were incubated for 30 min. in DPBS containing 1% BSA. OH1 cells (1×10^4/well) were added in RPMI containing 15% FCS and incubated for 72 h at 37° in 5% CO2. For assessing inhibition by soluble proteins or peptides, OH1 cells were grown in suspension in Nunclon 96 well tissue culture plates using the same medium.

[2] = test system: MDA-MB-435 breast carcinoma cells; test: Inhibition of MDA-MB-435 cell adhesion to immobilized peptide 678 (microscopic adhesion assay); type: cell-based, human
Protocol: (§1) Adhesion assays of cells other than small cell lung carcinoma (SCLC)-Adhesion was measured on polystyrene or glass substrates coated with peptides or proteins as previously described (Guo et al., 1992). Peptides dissolved in PBS at 0.4 to 50 μM were incubated in polystyrene microliter plate wells overnight at 4° C. The wells were washed 3 times with distilled water. Adsorbed peptide was quantified using the BCA assay (Pierce Chemical) measuring absorbance at 570 and 630 nm as described by the supplier's protocol. The assay for adsorption was calibrated using purified peptide in solution as a standard. After blocking with 1% BSA in Dulbecco's PBS, adhesion assays were performed by adding cells suspended in DMEM (BAE cells) or medium 199 (human cells) containing 1 mg/ml BSA. Cell attachment and spreading was quantified microscopically.

BAE cells [3] = conditions: added in solution
Protocol: (§5) Briefly, 100 μl of a 5×10^4 cell/ml suspension of BAE cells were seeded in triplicate into 96 well tissue culture plate in DMEM medium containing 1% FCS, 10 ng/ml of FGF2 and peptides at 1-40 μM concentrations. Cells were incubated for 72 h, and proliferation was measured using the Celltiter tetrazolium assay (Promega). […] Proliferation was determined at 72 h, and is presented as a percent of the control, mean±S.D., n=3 for experimental points and n=6 for control. […] FIG. 19E: HDME cell proliferation in MCDB growth medium with 5% FCS was determined in the presence of 10 ng/ml FGF2 and the indicated concentrations of TSP1 added in the medium (Δ) or immobilized on the substrate (●) or in wells coated with the indicated concentrations of peptide 678 (●).
(§6) Cell proliferation was measured using the Cell-Titer colorimetric assay (Promega) as previously described (Vogel et al., 1993). A 100 μl volume of BAE cell suspension at 50,000 cells/ml in DMEM containing 1% FBS and supplemented with 10 ng/ml FGF2 was plated in triplicate in 96 well tissue culture plates either in the presence of peptides in solution or in wells that were pre-coated with 100 μl of the peptides at 40° C. overnight and aspirated just before adding cells. Cells were grown for 72 hours at 37° C. in a humidified incubator with 5% CO2. […] HDME cell proliferation was measured in MCDB growth medium without heparin, VEGF, or FGF2.

BAE cells [4] = test: Scratch wound repair of BAE cells; type: cell-based, bovine; conditions: cells arrested using 5-fluorouracil; 24 h
Protocol: BAE cells were seeded at a density of 2×10^5 cells/well of 6 well tissue culture plates in complete growth medium supplemented with 10% FBS. After the cells formed a confluent cobblestone, cells were arrested using 10 μg/ml 5-fluorouracil for 48 h. Scrape wounds of 2 mm, width were made in the wells, and the cells were further incubated with medium containing 10% FBS, 10 μg/ml 5 fluorouracil and peptides 678, 709, or 690. Measurements of the distance between the wound margins were taken at 0 and 24 h, and the net migration is expressed as mean±SEM for triplicates.
The in vitro wound healing assay used was a slight modification of that described by Joyce et al. (Joyce et al., 1989). A confluent monolayer of BAE cells pretreated with 10 μg/ml 5-fluorouracil for […] were used in this assay. […] Mitosis of the BAE cells in the monolayers was inhibited by addition of 5-fluorouracil, so that the rate of wound closure was due solely to the migration of cells into the wound sites. The distances between the wound margins were measured as soon as the wound was made and 24 hours later using a grid incorporated into the eye piece of the microscope. All data represent the results obtained from three independent scratch wounds for each peptide tested.

MDA-MB-435 cells = test: MDA-MB-435 cell chemotaxis in modified Boyden chambers; type: cell-based, human
Protocol: FIGS. 10A and 10B display the measurement of MDA-MB-435 cell chemotaxis. Panel A: Dose-dependence for stimulation of MDA-MB-435 cell motility by peptide 678 added to the lower well of a modified Boyden chamber. Cells migrated to the lower surface of an 8 μm pore polycarbonate filter were quantified microscopically after 7 h, mean±SD, n=3 for a representative experiment. […] Chemotaxis of untreated cells (striped bars) or cells treated with 10 nM IGF1 in the upper chamber (solid bars) was determined after 7 h and is presented as mean±S.D., n=3.

BAE cells [5] = test system: BAE cells
Protocol: Direct adhesion of BAE cells to the adsorbed peptides or uncoated substrate (control) are presented as mean±SD, n=3. […] Two flasks of BAE cells were grown to confluence. One flask was harvested and replated in fresh medium at 25% confluency. Fresh medium was added at the same time to the second flask. After 16 h, cells from both flasks were dissociated using EDTA and adhesion was measured on substrates coated with 40 μg/ml TSP1, 10 μg/ml vitronectin, 20 μg/ml plasma fibronectin, or 5 μg/ml type I collagen. The percent spread cells after 60 min is presented as mean±SD, n=3 for a representative experiment.

HDME cells [6] = test: HDME cell proliferation; type: cell-based, human
Protocol: as §5, §6

N417 SCLC cells = test: SCLC cell adhesion to extracellular matrix proteins, N417; type: cell-based, human
Protocol: (§2) For adhesion assays of SCLC, these cells were washed once with RPMI 1640 and centrifuged at 400×g for 3 min. The pellet was suspended in 2.5 mM EDTA in PBS, pH 7.4 and incubated for 10 min at 37° C. After trituration three times and centrifugation, the cells were resuspended in RPMI 1640 containing 0.1% BSA (Sigma Co. St Louis, Mo.).
(§3) Adhesion of SCLC cells to extracellular matrix proteins. Extracellular matrix proteins or peptides in Dulbecco's PBS were adsorbed onto polystyrene by incubating overnight at 4° C. […] The supernatant fluid was removed, and the dishes were incubated with Tris-gelatin (ICN) (50 mM Tris-HCl, 110 mM NaCl, 5 mM CaCl2, 0.1 mM phenylmethylsulfonyl fluoride, 0.2% gelatin and 0.02% NaN3, pH 7.8) or Dulbeccos PBS with 1% BSA, as indicated, for 30 min to minimize nonspecific adhesion. The disks were washed twice with cold PBS, pH 7.2 and overlayed with dissociated SCLC cells prepared as described above at a density of 2.5×10^5/cm^2.
(§4) For inhibition studies with SCLC cells, inhibitors or antibodies were added and incubated with SCLC cells at the indicated concentrations. After incubation for 60-90 min at 37° C., the disks were washed by dipping six times in PBS, pH 7.2, fixed with 1% glutaraldehyde in PBS, pH 7.2, and stained with Diff-Quik. Attached cells were counted microscopically.

H69 SCLC cells = test: SCLC cell adhesion to extracellular matrix proteins, H69; type: cell-based, human
Protocol: as §2, §3, §4

HUVEC = HUVEC spreading on coated substrates; type: cell-based, human; conditions: data not shown
Protocol: FIGS. 14A, 14B and 14C display α3β1 and αvβ3 integrin-mediated spreading of endothelial cells on thrombospondin-1. […] Results are expressed as percent of the response for untreated cells, mean±S.D., n=3.
as §1

H345 SCLC cells = test: SCLC cell adhesion to extracellular matrix proteins, H345; type: cell-based, human
Protocol: as §2, §3, §4

HDME cells [7] = test: HDME cell spreading on coated substrates; type: cell-based, human
Protocol: Spreading was determined microscopically for cells with no additions, in the presence of 10 μM peptide 678, or in the presence of 30 μM of the control peptide 690. Results are presented as mean±SD, n=3. […] The percent spread cells was determined at 60 min.
as §1

[8] = Table 3, 5 μM peptide 678, read-out: IC50 (μM), inhibition of MDA-MB-435 cell adhesion to immobilized peptide 678
[9] = microscopic adhesion assay, polystyrene coated with 5 μM peptide 678, peptides in solution, read-out: Inhibition of peptide 678 (IC50)
[10] = cells harvested from a confluent monolayer

## FQGVLQAVRFVF [Peptide 686]
[1]; 5 μM peptide
  Angiogenic response (% inhibition): 3 ± 4%
[1]; 10 μM peptide
  Angiogenic response (% inhibition): 4 ± 6%
[1]; 20 μM peptide
  Angiogenic response (% inhibition): 15 ± 7%
[1]
  activity in the CAM assay: reduced activity
OH1 SCLC cells
  inhibition of OH1 cell proliferation: inactive
[2]; [8]
  IC50: > 300 µM
[2]; [9]
  IC50: > 300 µM
BAE cells [3]
  inhibition of BAE cell proliferation: inactive

## FQGVLQNVAFVF [Peptide 690]
BAE cells [4]
  inhibition of BAE cell migration into the wound: did not inhibit
[1]; 5 μM peptide
  Angiogenic response (% inhibition): 3 ± 3%
[1]; 10 μM peptide
  Angiogenic response (% inhibition): 5 ± 3%
[1]; 20 μM peptide
  Angiogenic response (% inhibition): 2 ± 5%
[1]
  activity in the CAM assay: inactive
[2]; [8]
  IC50: > 300 µM
[2]; [9]
  IC50: > 300 µM
MDA-MB-435 cells
  stimulation of chemotaxis: inactive
BAE cells [5]; peptide added in solution
  inhibition of density-dependent BAE spreading on intact TSP1 and the TSP1 peptide: not significantly inhibited
BAE cells [5]; peptides adsorbed at 10 μM (FIG. 11A)
  endothelial cell attachment on immobilized peptide: not

## TSP1: calcium replete thrombospondin-1 purified from human platelets
HDME cells [6]
  HDME cell proliferation after plating on immobilized substance: enhancement
N417 SCLC cells; 6.2 μg/ml
  SCLC cell adhesion: 15 ± 2 cells/mm2
N417 SCLC cells; 12.5 μg/ml
  SCLC cell adhesion: 30 ± 4 cells/mm2
N417 SCLC cells; 25 μg/ml
  SCLC cell adhesion: 48 ± 4 cells/mm2
N417 SCLC cells; 50 μg/ml
  SCLC cell adhesion: 55 ± 10 cells/mm2
H69 SCLC cells; 12.5 μg/ml
  SCLC cell adhesion: 46 ± 8 cells/mm2
H69 SCLC cells; 25 μg/ml
  SCLC cell adhesion: 94 ± 6 cells/mm2
H69 SCLC cells; 50 μg/ml
  SCLC cell adhesion: 110 ± 14 cells/mm2
H69 SCLC cells; substrate coated at 6.2 μg/ml, mean ± S.D., n = 3
  SCLC cell adhesion: 6 ± 1 cells/mm2
HUVEC; confluent cells
  percent spread HUVEC on immobilized substrate: 41±5%
HUVEC; sparse cultures
  percent spread HUVEC on immobilized substrate: 46±7%
H345 SCLC cells; 6.2 μg/ml
  SCLC cell adhesion: 1 ± 1 cells/mm2
H345 SCLC cells; 12.5 μg/ml
  SCLC cell adhesion: 7 ± 1 cells/mm2
H345 SCLC cells; 25 μg/ml
  SCLC cell adhesion: 124 ± 17 cells/mm2
H345 SCLC cells; 50 μg/ml
  SCLC cell adhesion: 165 ± 6 cells/mm2
HDME cells [7]; cells from sparse culture
  percent spread HDME cells on immobilized substrate: 29%
HDME cells [7]; [10]
  percent spread HDME cells on immobilized substrate: 6%
BAE cells [5]; [10]
  percent spread BAE cells on substrate: less than 10%

## ri-FQGVLQNVRFVF [Peptide 709]
BAE cells [4]
  inhibition of BAE cell migration into the wound: dose-dependent inhibitor
[1]; 5 μM peptide
  Angiogenic response (% inhibition): 5 ± 4%
[1]; 10 μM peptide
  Angiogenic response (% inhibition): 25 ± 13%
[1]; 20 μM peptide
  Angiogenic response (% inhibition): 39 ± 13%
[1]
  activity in the CAM assay: enhanced activity
